Experiments:
Assay type in all cases: functional, cell-based
[1] = biological target: T1, ATP-dependent translocase ABCB1 (Homo sapiens, UniProt P08183); experiment: TP_TRANSPORTER: inhibition of Taxol transepithelial transport (basal to apical)(Taxol: 0.04-0.06 uM, Tween 80: 0.05 %) in Caco-2 cells
[2] = biological target: T1, ATP-dependent translocase ABCB1; experiment: TP_TRANSPORTER: inhibition of Taxol transepithelial transport (basal to apical)(Taxol: 0.04-0.06 uM, Tween 80: 0.05 %) in MDR1-expressing MDCK cells; conditions: dog
[3] = biological target: T1, ATP-dependent translocase ABCB1; experiment: TP_TRANSPORTER: inhibition of Taxol transepithelial transport (basal to apical)(Taxol: 0.04-0.06 uM, Cremophor EL: 0.1 %) in Caco-2 cells
[4] = biological target: T1, ATP-dependent translocase ABCB1; experiment: TP_TRANSPORTER: inhibition of Taxol transepithelial transport (basal to apical)(Taxol: 0.04-0.06 uM, Cremophor EL: 0.1 %) in MDR1-expressing MDCK cells; conditions: dog
[5] = biological target: T1, ATP-dependent translocase ABCB1; experiment: TP_TRANSPORTER: inhibition of Taxol transepithelial transport (basal to apical) (Taxol: 0.04-0.06 uM, PEG-300: 20 %) in MDR1-expressing MDCK cells; conditions: dog
[6] = biological target: T1, ATP-dependent translocase ABCB1; experiment: TP_TRANSPORTER: inhibition of Taxol transepithelial transport (basal to apical) (Taxol: 0.04-0.06 uM, PEG-300: 20 %) in Caco-2 cells

T1 sequence (P08183 whole entry): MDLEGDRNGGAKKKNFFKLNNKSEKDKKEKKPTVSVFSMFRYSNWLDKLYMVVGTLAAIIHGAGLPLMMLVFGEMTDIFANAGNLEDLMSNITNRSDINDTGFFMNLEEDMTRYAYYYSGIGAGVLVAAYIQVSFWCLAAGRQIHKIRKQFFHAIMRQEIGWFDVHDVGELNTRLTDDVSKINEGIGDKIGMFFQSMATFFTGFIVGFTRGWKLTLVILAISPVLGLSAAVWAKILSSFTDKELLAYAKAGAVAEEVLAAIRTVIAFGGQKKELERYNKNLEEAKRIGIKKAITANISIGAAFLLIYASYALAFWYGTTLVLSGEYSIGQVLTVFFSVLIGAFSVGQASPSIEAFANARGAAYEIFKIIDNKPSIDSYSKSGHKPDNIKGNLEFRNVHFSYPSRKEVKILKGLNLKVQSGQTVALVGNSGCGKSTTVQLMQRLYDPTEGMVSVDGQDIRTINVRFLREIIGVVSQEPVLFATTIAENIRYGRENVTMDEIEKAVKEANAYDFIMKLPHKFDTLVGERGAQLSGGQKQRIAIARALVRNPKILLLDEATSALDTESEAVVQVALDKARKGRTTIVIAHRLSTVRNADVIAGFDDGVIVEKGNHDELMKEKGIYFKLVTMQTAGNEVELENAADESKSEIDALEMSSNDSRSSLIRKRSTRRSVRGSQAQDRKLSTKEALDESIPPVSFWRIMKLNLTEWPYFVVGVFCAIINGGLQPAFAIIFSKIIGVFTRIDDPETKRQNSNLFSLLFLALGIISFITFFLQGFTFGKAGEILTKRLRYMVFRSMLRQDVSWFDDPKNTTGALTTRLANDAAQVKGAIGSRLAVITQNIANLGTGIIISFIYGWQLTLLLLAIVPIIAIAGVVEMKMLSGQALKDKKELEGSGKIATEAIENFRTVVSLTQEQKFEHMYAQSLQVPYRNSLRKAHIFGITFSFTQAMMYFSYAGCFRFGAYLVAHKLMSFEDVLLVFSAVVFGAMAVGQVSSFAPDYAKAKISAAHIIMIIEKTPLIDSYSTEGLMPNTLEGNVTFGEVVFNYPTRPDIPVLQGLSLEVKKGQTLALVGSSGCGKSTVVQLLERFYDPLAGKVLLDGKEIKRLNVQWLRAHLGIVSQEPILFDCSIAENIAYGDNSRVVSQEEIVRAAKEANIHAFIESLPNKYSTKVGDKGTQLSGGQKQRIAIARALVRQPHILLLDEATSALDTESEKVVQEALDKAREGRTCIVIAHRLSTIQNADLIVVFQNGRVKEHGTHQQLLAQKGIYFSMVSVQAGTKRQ

**Q.** How did the Activity [1] turn out when `CCCCCCCC/C=C\CCCCCCCC(=O)OCCOCC(OCCO)C1OCC(OCCO)C1OCCO` (stereo unspecified) [TWEEN 80] was run?
**A.** inhibitor [+]

**Q.** And the Activity [2]?
**A.** is not an inhibitor [-]

**Q.** What does the source list for CREMOPHOR EL?
**A.** Activity [3]: inhibitor [+]; Activity [4]: is not an inhibitor [-]

**Q.** Which results are given for PEG 300?
**A.** Activity [5]: inhibitor [+]; Activity [6]: inhibitor [+]

Source: ChEMBL document CHEMBL2074444, “A comparison of commonly used polyethoxylated pharmaceutical excipients on their ability to inhibit P-glycoprotein activity in vitro” (J Pharm Sci, 2002)
